One assay relates to A549. The experiment in a line: Cytotoxicity against human A549 cells assessed as growth inhibition after 72 hrs by MTT assay. The assay is classed as functional, cell-based. As to conditions: A549, 72 h.
A short description of assay [1]: Cytotoxicity against human HCT116 cells assessed as growth inhibition after 72 hrs by MTT assay. The settings on record: HCT-116, 72 h. The assay is classed as functional, cell-based.
For the next assay, the system named is MDA-MB-231. Kind of assay: Cytotoxicity against human MDA-MB-231 cells assessed as growth inhibition after 72 hrs by MTT assay. In kind it is functional, cell-based. The settings on record: MDA-MB-231, 72 h.
Assay [2] concerns HCT-116. Kind of assay: Induction of apoptosis in human HCT116 cells assessed as apoptotic cells at 5 uM after 24 hrs by annexin V-FITC/propidium iodide staining based flow cytometric analysis. In kind it is functional.
Assay [3] deals with HCT-116. The experiment in a line: Induction of apoptosis in human HCT116 cells assessed as apoptotic cells at 5 uM after 48 hrs by annexin V-FITC/propidium iodide staining based flow cytometric analysis. The assay is classed as functional.

The structures appear in SMILES notation.

Regarding `CC1=NN(c2ccccc2)C(=O)[C@@]12C(=O)C=CC[C@H]2c1cccc(C)c1`, the results for the IC50 (with A549; in assay [1]; in the assay with MDA-MB-231) were 3.5 µM, 5.82 µM and 6.61 µM, respectively.
Taken in the same sequence, the figures for `CC1=NN(c2ccccc2)C(=O)[C@@]12C(=O)C=CC[C@H]2c1ccccc1` were 3.77 µM, 4.4 µM and 5.5 µM.
Regarding `CC1=NN(c2ccccc2)C(=O)[C@]12C(=O)C=CC[C@H]2c1ccccc1[N+](=O)[O-]`, the half-maximal inhibitory concentration (IC50) in the assay on A549 was 12.9 µM; in assay [1] it was 11.2 µM; with MDA-MB-231, 32.4 µM.
For `CC1=NN(c2ccccc2)C(=O)[C@@]12C(=O)C=CC[C@H]2c1ccc(C)cc1`, in that order: 6.09 µM, 5.21 µM and 8.3 µM.
Taken in the same sequence, the figures for `CC1=NN(c2ccccc2)C(=O)[C@]12C(=O)C=CC[C@H]2c1ccc(C)cc1` were 2.89 µM, 4.22 µM and 5.72 µM.
Taken in the same sequence, the figures for `CC1=NN(c2ccc(C)cc2)C(=O)[C@@]12C(=O)C=CC[C@H]2c1ccc(C)cc1` were 6.79 µM, 3.62 µM and 9.2 µM.
Regarding `CC1=NN(c2ccc(C)cc2)C(=O)[C@]12C(=O)C=CC[C@H]2c1ccc(C)cc1`, the IC50 was determined as 7.52 µM with A549, 3.53 µM in assay [1] and 8.28 µM in the assay with MDA-MB-231.
As to `COc1ccccc1[C@@H]1CC=CC(=O)[C@]12C(=O)N(c1ccccc1)N=C2C`, the figures for the IC50 (with A549; in assay [1]; in the assay on MDA-MB-231) were 3.96 µM, 2.85 µM and 5.14 µM, respectively. In addition, the Activity was determined as 68.44% with HCT-116 [2] and 72.13% with HCT-116 [3].
For the molecule `CC1=NN(c2ccccc2)C(=O)[C@]12C(=O)C=CC[C@H]2c1ccccc1`, the half-inhibitory concentration (IC50) with A549 was determined as 8.29 µM; in assay [1], 5.3 µM; in the assay with MDA-MB-231 it was 5.8 µM.
With `CC1=NN(c2ccccc2)C(=O)[C@]12C(=O)C=CC[C@H]2c1cccc(C)c1`, the figures for the IC50 (in the assay with A549; in assay [1]; in the assay with MDA-MB-231) were 13.1 µM, 9.58 µM and 10.3 µM, respectively.
On to `CC1=NN(c2ccccc2)C(=O)[C@@]12C(=O)C=CC[C@@H]2c1ccccc1` (racemic), for which the values for the IC50 (in the assay with A549; in assay [1]; in the assay on MDA-MB-231) were 7.77 µM, 6.07 µM and 9.31 µM, respectively.
For `CC1=NN(c2ccccc2)C(=O)[C@@]12C(=O)C=CC[C@@H]2c1cccc(C)c1` (racemic), in that order: 4.51 µM, 3.8 µM and 6.8 µM.
For `CC1=NN(c2ccc(C)cc2)C(=O)[C@@]12C(=O)C=CC[C@@H]2c1ccc(C)cc1` (racemic), the IC50 stood at 4.32 µM in the assay with A549, 4.15 µM in assay [1] and 8.12 µM in the assay with MDA-MB-231.
For `CC1=NN(c2ccc(C)cc2)C(=O)[C@]12C(=O)C=CC[C@@H]2c1ccc(C)cc1` (racemic), in that order: 54.2 µM, 14.6 µM and 57.2 µM.
Taken in the same sequence, the figures for `CC1=NN(c2ccccc2)C(=O)[C@]12C(=O)C=CC[C@@H]2c1ccc(C)cc1` (racemic) were 8.6 µM, 5.8 µM and 6.24 µM.
As to `CC1=NN(c2ccccc2)C(=O)[C@]12C(=O)C=CC[C@@H]2c1cccc(C)c1` (racemic), the results for the IC50 (with A549; in assay [1]; in the assay with MDA-MB-231) were 4.77 µM, 5.49 µM and 8 µM, respectively.
On to `COc1ccccc1[C@H]1CC=CC(=O)[C@@]12C(=O)N(c1ccccc1)N=C2C` (racemic), for which the IC50 in the assay on A549 amounted to 18.7 µM; in assay [1], 13.9 µM; in the assay on MDA-MB-231 it was 15.7 µM.
For `CC1=NN(c2ccccc2)C(=O)[C@@]12C(=O)C=CC[C@@H]2c1ccc(C)cc1` (racemic), the IC50 is 6.57 µM with A549, 5.22 µM in assay [1] and 7.42 µM in the assay on MDA-MB-231.
Taken in the same sequence, the figures for `CC1=NN(c2ccccc2)C(=O)[C@]12C(=O)C=CC[C@@H]2c1ccccc1` (racemic) were 9.18 µM, 6.04 µM and 9.08 µM.
As for `CC1=NN(c2ccccc2)C(=O)[C@@]12C(=O)C=CC[C@@H]2c1ccccc1[N+](=O)[O-]` (racemic), the values for the IC50 (in the assay on A549; in assay [1]; with MDA-MB-231) were 66.4 µM, 66.8 µM and 68.3 µM, respectively.
As for `COc1cccc2c1C(=O)c1c(O)c3c(c(O)c1C2=O)C[C@@](O)(C(=O)CO)C[C@@H]3O[C@H]1C[C@H](N)[C@H](O)[C@H](C)O1` [DOXORUBICIN], in the assay with MDA-MB-231, the IC50 was 0.45 µM.
With `O=C(CCCCCCC(=O)Nc1ccccc1)NO` [VORINOSTAT], the values for the Activity in the assay with HCT-116 [2] and with HCT-116 [3] were 42.2% and 62.4%, respectively.

(Values after ChEMBL document CHEMBL3785052, “Novel spiropyrazolone antitumor scaffold with potent activity: Design, synthesis and structure-activity relationship” (Eur J Med Chem, 2016).)
